Results as given in patent US11629171B2, “Beta-hairpin peptidomimetics” (POLYPHOR AG, priority 2017, dated 2023).
Values after ≈ are worked out from the molar mass of the structure shown. Where a SMILES comes first, the peptide text is derived from it. Bridges are numbered along the chain shown (N, C = ends). Roman numbers before positions name the chains, in order. [ ]: non-standard residue; d: D form. dDab = NCC[C@@H](N)C(=O)O; Orn = NCCC[C@H](N)C(=O)O; Dab = NCC[C@H](N)C(=O)O; Dap = NC[C@H](N)C(=O)O

Experiments:
male ICR mice = assay: Tolerability in a mouse model (Maximum Tolerated Dose assay); assay type: in vivo; settings: 2 × 40 mg/kg s.c. at a 12-hr interval, groups of 3
Method in brief: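 Peptides in 0.9% NaCl (pH 6.5-7.6) given s.c. at 30 or 40 mg/kg, twice 12 h apart, to groups of 3 male ICR mice (23±3 g). Acute toxic signs (mortality, convulsions, tremors, sedation) and autonomic effects (diarrhea, salivation, piloerection) observed for 30 min after each dose.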

[1] = tested on: Enterobacter cloacae 848840; assay type: cell-based; settings: 848840
Method in brief: (§1)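 Standard CLSI microdilution testing: bacterial suspensions standardized against 0.5 McFarland to about 10^6 CFU/mL in MH-II broth meet serially halved peptide concentrations in broth containing 0.002% polysorbate 80; incubation lasts 18-20 h at 35° C before the MIC is scored.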

[2] = tested on: Acinetobacter baumannii 872842; assay type: cell-based; settings: 872842
Method in brief: as §1

[3] = tested on: Pseudomonas aeruginosa ATCC 27853; assay type: cell-based; settings: ATCC 27853
Method in brief: as §1

[4] = tested on: Klebsiella pneumoniae 968733; assay type: cell-based; settings: 968733
Method in brief: as §1

[5] = tested on: Escherichia coli ATCC 25922; assay type: cell-based; settings: ATCC 25922
Method in brief: as §1

[6] = tested on: Klebsiella pneumoniae SSI #3010; assay type: cell-based; settings: SSI #3010
Method in brief: as §1

[7] = tested on: Acinetobacter baumannii DSM 30008; assay type: cell-based; settings: DSM 30008
Method in brief: as §1

Escherichia coli 926415 = assay type: cell-based; settings: 926415
Method in brief: as §1

[8] = tested on: human red blood cells (hRBC); assay: Hemolysis; assay type: cell-based; settings: red cells of human, 1 h, 200
Method in brief: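 Read-out is supernatant absorbance at 540 nm, normalised to full lysis by 2% Triton X-100 and zero lysis by PBS with 10% water. Peptides (200 μg/mL) were exposed to 20% v/v washed human erythrocytes at 37° C for 1 h under shaking.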

Compound	Mortality and dose (male ICR mice)	MIC [1] [µg/mL]	MIC [2] [µg/mL]	Pseudomonas aeruginosa ATCC 27853 MIC [3] [µg/mL]	MIC [4] [µg/mL]	Escherichia coli ATCC 25922 MIC [5] [µg/mL]	Klebsiella pneumoniae SSI #3010 MIC [6] [µg/mL]	Acinetobacter baumannii DSM 30008 MIC [7] [µg/mL]	MIC (Escherichia coli 926415) [µg/mL]	Hemolysis at 200 μg/mL [8] [%]
CC(=O)N[C@H](C(=O)N[C@H]1CSSC[C@@H](C(=O)N[C@@H](CO)C(N)=O)NC(=O)[C@H](C(C)C)NC(=O)[C@H](CO)NC(=O)[C@H](Cc2c[nH]c3ccccc23)NC(=O)[C@H](CCN)NC(=O)CNC(=O)[C@H](CCC(=O)N[C@@H](CCN)C(=O)N[C@H](C(=O)N[C@@H](CN)C(=O)N[C@H]2CCNC(=O)[C@H]([C@@H](C)O)NC(=O)[C@H](CCN)NC(=O)[C@H](CCN)NC(=O)[C@H](CC(C)C)NC(=O)[C@@H](CC(C)C)NC(=O)[C@H](CCN)NC2=O)[C@@H](C)O)NC(=O)[C@H](CCN)NC(=O)[C@H](Cc2ccc(O)cc2)NC1=O)C(C)C [Ex. 345] (I: Ac-VCY[Dab]EG[Dab]WSVCS-NH2 / II: [Dab]T[Dap][Dab][Dab][dL]L[Dab][Dab]T; disulfide I:2-I:11; amide I:5-II:N; lactam II:4-II:C)	0/3 died at 2 × 40 mg/kg	0.125 (≈ 0.0528 µM)	0.125 (≈ 0.0528 µM)	0.125	0.25 (≈ 0.106 µM)	0.0625	0.0625	0.0625	0.125 (≈ 0.0528 µM)	<1
CC(=O)N[C@H](C(=O)N[C@H]1CSSC[C@@H](C(=O)N[C@@H](CO)C(N)=O)NC(=O)[C@H](C(C)C)NC(=O)[C@H](CO)NC(=O)[C@H](Cc2c[nH]c3ccccc23)NC(=O)CNC(=O)[C@@H](CCN)NC(=O)[C@H](CCC(=O)N[C@@H](CCN)C(=O)N[C@H](C(=O)N[C@@H](CN)C(=O)N[C@H]2CCNC(=O)[C@H]([C@@H](C)O)NC(=O)[C@H](CCN)NC(=O)[C@H](CCN)NC(=O)[C@H](CC(C)C)NC(=O)[C@@H](CC(C)C)NC(=O)[C@H](CCN)NC2=O)[C@@H](C)O)NC(=O)[C@H](CCN)NC(=O)[C@H](Cc2ccc(O)cc2)NC1=O)C(C)C [Ex. 350] (I: Ac-VCY[Dab]E[dDab]GWSVCS-NH2 / II: [Dab]T[Dap][Dab][Dab][dL]L[Dab][Dab]T; disulfide I:2-I:11; amide I:5-II:N; lactam II:4-II:C)	0/3 died at 2 × 40 mg/kg	0.125 (≈ 0.0528 µM)	0.0625 (≈ 0.0264 µM)	0.125	0.125 (≈ 0.0528 µM)	0.03125	0.125	0.03125	0.125 (≈ 0.0528 µM)	<1
CC(=O)N[C@H](C(=O)N[C@H]1CCNC(=O)C[C@@H](C(=O)N[C@@H](CO)C(N)=O)NC(=O)[C@H](C(C)C)NC(=O)[C@H](CO)NC(=O)[C@H](Cc2c[nH]c3ccccc23)NC(=O)CNC(=O)[C@@H](CCN)NC(=O)[C@H](CCC(=O)N[C@@H](CCN)C(=O)N[C@H](C(=O)N[C@@H](CN)C(=O)N[C@H]2CCNC(=O)[C@H]([C@@H](C)O)NC(=O)[C@H](CCN)NC(=O)[C@H](CCN)NC(=O)[C@H](CC(C)C)NC(=O)[C@@H](CC(C)C)NC(=O)[C@H](CCN)NC2=O)[C@@H](C)O)NC(=O)[C@H](CCN)NC(=O)[C@H](Cc2ccc(O)cc2)NC1=O)C(C)C [Ex. 351] (I: Ac-V[Dab]Y[Dab]E[dDab]GWSVDS-NH2 / II: [Dab]T[Dap][Dab][Dab][dL]L[Dab][Dab]T; lactam I:2-I:11, II:4-II:C; amide I:5-II:N)	0/3 died at 2 × 40 mg/kg	0.25 (≈ 0.106 µM)	0.25 (≈ 0.106 µM)	0.125	1 (≈ 0.423 µM)	0.0625	0.0625	0.0625	0.5 (≈ 0.212 µM)	<1
CC(=O)N[C@H](C(=O)N[C@H]1CSSC[C@@H](C(=O)N[C@@H](CO)C(N)=O)NC(=O)[C@H](C(C)C)NC(=O)[C@H](CO)NC(=O)[C@H](Cc2c[nH]c3ccccc23)NC(=O)[C@H](CCC(=O)N[C@@H](CCN)C(=O)N[C@H](C(=O)N[C@@H](CN)C(=O)N[C@H]2CCNC(=O)[C@H]([C@@H](C)O)NC(=O)[C@H](CCN)NC(=O)[C@H](CCN)NC(=O)[C@H](CC(C)C)NC(=O)[C@@H](CC(C)C)NC(=O)[C@H](CCN)NC2=O)[C@@H](C)O)NC(=O)[C@@H](CCN)NC(=O)[C@H](Cc2c[nH]cn2)NC(=O)[C@H](CO)NC(=O)[C@H](Cc2ccc(O)cc2)NC1=O)C(C)C [Ex. 358] (I: Ac-VCYSH[dDab]EWSVCS-NH2 / II: [Dab]T[Dap][Dab][Dab][dL]L[Dab][Dab]T; disulfide I:2-I:11; amide I:7-II:N; lactam II:4-II:C)	0/3 died at 2 × 40 mg/kg	0.125 (≈ 0.0513 µM)	0.0625 (≈ 0.0257 µM)	0.125	0.25 (≈ 0.103 µM)	0.03125	0.125	0.03125	0.25 (≈ 0.103 µM)	1
CC(=O)N[C@H](C(=O)N[C@H]1CSSC[C@@H](C(=O)N[C@@H](CO)C(N)=O)NC(=O)[C@H](C(C)C)NC(=O)[C@H](CO)NC(=O)[C@H](Cc2c[nH]c3ccccc23)NC(=O)[C@H](CCC(=O)N[C@@H](CCN)C(=O)N[C@H](C(=O)N[C@@H](CN)C(=O)N[C@H]2CCNC(=O)[C@H]([C@@H](C)O)NC(=O)[C@H](CCN)NC(=O)[C@H](CCN)NC(=O)[C@H](CC(C)C)NC(=O)[C@@H](CC(C)C)NC(=O)[C@H](CCN)NC2=O)[C@@H](C)O)NC(=O)[C@@H](CCN)NC(=O)[C@H](CCCN)NC(=O)[C@H](CCN)NC(=O)[C@H](Cc2ccc(O)cc2)NC1=O)C(C)C [Ex. 359] (I: Ac-VCY[Dab][Orn][dDab]EWSVCS-NH2 / II: [Dab]T[Dap][Dab][Dab][dL]L[Dab][Dab]T; disulfide I:2-I:11; amide I:7-II:N; lactam II:4-II:C)	0/3 died at 2 × 40 mg/kg	0.125 (≈ 0.0515 µM)	0.125 (≈ 0.0515 µM)	0.125	0.5 (≈ 0.206 µM)	0.0625	0.125	0.0625	0.25 (≈ 0.103 µM)	1
CC(=O)N[C@H](C(=O)N[C@H]1CSSC[C@@H](C(=O)N[C@@H](CO)C(N)=O)NC(=O)[C@H](C(C)C)NC(=O)[C@H](CO)NC(=O)[C@H](Cc2c[nH]c3ccccc23)NC(=O)[C@H](CCC(=O)N[C@@H](CCN)C(=O)N[C@H](C(=O)N[C@@H](CN)C(=O)N[C@H]2CCNC(=O)[C@H]([C@@H](C)O)NC(=O)[C@H](CCN)NC(=O)[C@H](CCN)NC(=O)[C@H](CC(C)C)NC(=O)[C@@H](CC(C)C)NC(=O)[C@H](CCN)NC2=O)[C@@H](C)O)NC(=O)[C@@H](CCN)NC(=O)[C@H](C)NC(=O)[C@H](CCN)NC(=O)[C@H](Cc2ccc(O)cc2)NC1=O)C(C)C [Ex. 361] (I: Ac-VCY[Dab]A[dDab]EWSVCS-NH2 / II: [Dab]T[Dap][Dab][Dab][dL]L[Dab][Dab]T; disulfide I:2-I:11; amide I:7-II:N; lactam II:4-II:C)	0/3 died at 2 × 40 mg/kg	0.0625 (≈ 0.0262 µM)	0.0625 (≈ 0.0262 µM)	0.125	0.125 (≈ 0.0525 µM)	0.0625	0.0625	0.0625	0.125 (≈ 0.0525 µM)	<1
